Like-named read-outs stand apart in the source and are kept apart here.
What was measured:
[1] = tested on: σ-1 receptor; conditions: cited from earlier work
[2] = target: σ-1 receptors; assay: In vitro radioligand binding assays of CM304 at sigma receptors; design: species or system rat
Protocol: Competition binding assays were performed as previously described. Briefly, radioligands were used to tag the targeted sites under standard conditions.

[3] = pKa by potentiometric titration; format: physicochemical
Protocol: A solution of 0.01 M sodium hydroxide was prepared and the pH measured as 11.9. Similarly, 0.01 M hydrochloric acid solution was prepared and the pH measured as 2.07. […] To the same sample, 0.1 mL portions of hydrochloric acid were added and pH recorded until it became constant. A titration curve was then plotted as pH versus the volume of base/acid added.

[4] = in vitro; format: in vitro ADME; design: dose or concentration left out as unconfirmed; conditions: pH 7.4; mouse liver microsomes, NADPH-generating system, 37 °C
Protocol: The reaction was initiated by adding cofactors and quenched at designated time points (0, 5, 10, 15, 30, 45, 60 min) by the addition of an equal volume of ice-cold acetonitrile (ACN). […].
The basic incubation mixture consisted of 5 mM substrate, 1 mg/mL microsomal protein, 3 mM MgCl2, 1 mM NADP, 5 mM glucose-6-phosphate, 1 IU/mL glucose-6-phosphate dehydrogenase, 100 mM Tris HCl buffer (pH 7.4) in a final volume of 1 mL. The reaction was initiated by adding cofactors and quenched at designated time points (0, 5, 10, 15, 30, 45, 60 min) by addition of an equal volume of ice-cold ACN. The mixture was centrifuged at 3000 rpm for 10 min, and the supernatant was analyzed by UPLC/MS/MS.

[5] = tested on: Male, Swiss Webster mice; assay: Cocaine-induced convulsions; format: in vivo; conditions: pretreatment i.p. 15 min before cocaine 70 mg/kg i.p.
[6] = target: T1, σ-2 (Rattus norvegicus, UniProt Q5U3Y7); assay: σ receptor assay: σ-2 binding with [3H]DTG plus (+)-pentazocine; conditions: for Ki: rat brain homogenates
T1 construct: from tissue; host or cells: rat brain homogenate (membrane protein)
T1 sequence (Q5U3Y7 1-176): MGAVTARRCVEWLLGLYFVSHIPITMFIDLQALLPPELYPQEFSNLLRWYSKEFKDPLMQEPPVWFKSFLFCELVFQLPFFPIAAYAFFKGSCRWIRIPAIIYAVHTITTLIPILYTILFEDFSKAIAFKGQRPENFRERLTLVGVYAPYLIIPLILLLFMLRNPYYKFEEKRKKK
Protocol: (§3) Compounds were evaluated for σ -1 and σ -2 binding in rat brain homogenates. […] The assays were terminated with ice-cold 10 mM Tris-HCl, pH 8.0, followed by two washes through glass fiber filters that were pre-soaked for at least 30 min in 0.5% polyethyleneimine.

[7] = tested on: σ-1 receptor; assay: Cell uptake studies in transfected CHO cells; conditions: at 120 min
Protocol: Control CHO cells (transfected with a vector not containing the σ-1 receptor gene - to serve as a negative control) and CHO cells transfected with a vector containing σ-1 receptor cDNA (to serve as a positive control for σ-1 receptor expression in cells) were used for the uptake assays. […] The incubated cells were subsequently washed, lysed and counted for radioactivity. All collected data were normalized for amount of protein present in each well.
Cells CHO cells were grown in Ham's F-12 medium. For uptake studies CHO cells were transfected using Lipofectamine 2000 (Invitrogen, Carlsbad, CA, USA) and either pcDNA (empty vector, negative control) or σ-1 receptor gene (OPRS1, accession number NM_005866.2, origin, Rockville, MD, USA) following manufacturer's directions. […] Twenty-four hours later, CHO cells were transfected with either 0.8 µg pcDNA (empty vector, control), or 0.8 µg sigma-1 DNA. […] A portion of each lysate (250 µL) was transferred to a glass tube and activity was measured with a Cobra II γ counter (Packard-Perkin Elmer, Waltham, MA, USA). Protein content from each well was measured by Bradford assay. The same protocol was followed for (+)-[^3H]pentazocine, except the activity was measured with a liquid scintillation counter (Beckman Coulter LS 6500, Brea, CA, USA).

[8] = target: σ-1 (Rattus norvegicus, UniProt Q9R0C9); assay: σ receptor assay: σ-1 binding with [3H](+)-pentazocine; conditions: rat brain homogenates; CM table
Protocol: as §3

[9] = tested on: Male, Swiss Webster mice; assay: Expression of cocaine-induced sensitization; format: in vivo; conditions: compound on Day 15 before cocaine 10 mg/kg i.p.
Protocol: Male, Swiss Webster mice were acclimated as detailed above. For five consecutive days (Days 1-5), the mice were pretreated (i.p.) with saline, then challenged 15 min later with cocaine (10mg/kg, i.p.). The total locomotor activity (ambulatory, fine and rearing movements) of the mice was recorded for the next 30 min. A 10 day drug free period followed and on Day 15, the mice were administered saline (i.p.) or compound (0.1-20mg/kg), followed15 min later with cocaine (10mg/kg, i.p.). Locomotor activity was then recorded for the next 30 min.

[10] = tested on: Male, Swiss Webster mice; assay: Cocaine-induced locomotor activity; format: in vivo; conditions: pretreatment i.p. 15 min before cocaine 20 mg/kg i.p.
Protocol: Male, Swiss Webster mice were acclimated to the treatment room and then to the chambers of the automated activity monitoring system (San Diego Instruments, San Diego, CA). […] The total locomotor activity (ambulatory, fine and rearing movements) of the mice was recorded for the next 30 min as the number of disruptions made by them in the 16x16 photobeam grid of their testing chamber.

[11] = tested on: Male, Swiss Webster mice; assay: Methamphetamine-induced dopamine depletions; format: in vivo; conditions: methamphetamine 5 mg/kg x 4 at 2 hr intervals; striatal dopamine one week later
Protocol: Male, Swiss Webster mice were injected (i.p.) with saline or compound (0-20mg/kg), followed 15 min later with either saline (- METH) or methamphetamine (5mg/kg) at 2hr intervals, a total of four times. Striatal dopamine levels were measured one week later.

[12] = target: dopamine transporters; assay: Non-σ competition binding assay, [3H]WIN35,428; conditions: rat brain homogenates; read-out: DAT Ki
Protocol: (§1) Compounds were tested at various non-σ target sites to evaluate selectivity because cocaine interacts with these sites (dopamine, serotonin and norepinephrine transporters) or historic "sigma" ligands interact with them (opioid, NMDA, dopamine D2, 5-HT2 receptors). The compounds were tested in competition binding assays using rat brain homogenates as previously published. […] The results were reported as Ki in nM.

[13] = target: norepinephrine transporters; assay: Non-σ competition binding assay, [3H]nisoxetine; conditions: rat brain homogenates; read-out: NET Ki
Protocol: as §1

[14] = target: 5-HT2 receptors; assay: Non-σ competition binding assay, [3H]ketanserin; conditions: rat brain homogenates
Protocol: as §1

[15] = target: serotonin transporters; assay: Non-σ competition binding assay, [3H]paroxetine; conditions: rat brain homogenates; read-out: SERT Ki
Protocol: as §1

[16] = target: T2, dopamine D2 receptors (Rattus norvegicus, UniProt P61169); assay: Non-σ competition binding assay, [3H](-)-sulpiride; conditions: rat brain homogenates
T2 construct: from tissue; host or cells: rat brain homogenate
Protocol: as §1

[17] = tested on: Male, Swiss Webster mice; assay: Methamphetamine-induced locomotor activity; format: in vivo; conditions: pretreatment i.p. 15 min before methamphetamine 1 mg/kg i.p.
Protocol: (§2) Male, Swiss Webster mice were acclimated as detailed above. […] The total locomotor activity (ambulatory, fine and rearing movements) of the mice was recorded for the next 30 min as the number of disruptions made by them in the 16x16 photobeam grids surrounding their testing chambers.

[18] = target: NMDA receptors; assay: Non-σ competition binding assay, [3H]TCP; conditions: rat brain homogenates
Protocol: as §1

[19] = in vitro; format: in vitro ADME, rat
Protocol: Metabolic stability of AZ_66 (1µM) was performed in Ammonium acetate buffer (50mM, pH 7.4) with Rat liver microsomes (0.5mg) at 37 °C in 0.5ml of incubation mixture. The incubation mixture composed of Ammonium acetate buffer (50mM, pH 7.4), Magnesium chloride (3mM), a NADPH regenerating system consisting of NADP (1mM), glucose-6-phosphate (5mM), and glucose-6-phosphate dehydrogenase (1Unit/mL). The Substrate and microsomes were pre incubated at 37°C for 5 min before starting the reaction. The reactions were started by the addition of regenerating system and carried out at 37°C in a shaking water bath for 60min. The incubations were stopped by adding an equal volume of ice cold acetonitrile at predetermined time points (0, 5, 15, 30, 60 min). The samples were centrifuged for 10min at 4°C and the supernatant was injected into UPLC/MS/MS. Control incubation without NADPH was also performed and these served as 100% value. All microsomal incubations were conducted using the same lot of microsomes.
In vitro half-life and CLint: The percent of the parent compound remaining is plotted versus time. The slope of the line gives the rate constant k for the disappearance of parent compound, from which an in vitro t1/2 can be calculated. CLint can be calculated using the following formula CLint = k(min^−1) × ([V](L))/([P](mg)) = (L/mg×min) [formula] […]

[20] = analytical reverse-phase HPLC
[21] = target: σ-1 receptors (Mus musculus, UniProt O55242); assay: Small-animal PET imaging in mice (brain); format: in vivo
[22] = tested on: Male, Swiss Webster mice; assay: Development of cocaine-induced sensitization; format: in vivo; conditions: pretreatment Days 1-5, cocaine 10 mg/kg i.p.
Protocol: as §2, with “of” for “surrounding”, “chamber on each of the five days. A 10 day drug-free period followed. On Day 15, all of the mice were pre-administered (i.p.) saline followed by cocaine (10mg/kg, i.p.), and locomotor activity quantified for the next 30 min.” for “chambers.”

σ-1 receptors (Mus musculus, UniProt O55242), sequence (O55242 whole entry): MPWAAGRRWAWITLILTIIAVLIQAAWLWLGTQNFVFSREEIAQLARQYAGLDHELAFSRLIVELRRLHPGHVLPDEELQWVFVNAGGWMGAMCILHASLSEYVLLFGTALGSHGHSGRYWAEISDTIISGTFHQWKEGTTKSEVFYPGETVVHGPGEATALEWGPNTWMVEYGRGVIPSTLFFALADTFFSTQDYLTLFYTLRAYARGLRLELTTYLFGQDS
σ-1, sequence (Q9R0C9 whole entry): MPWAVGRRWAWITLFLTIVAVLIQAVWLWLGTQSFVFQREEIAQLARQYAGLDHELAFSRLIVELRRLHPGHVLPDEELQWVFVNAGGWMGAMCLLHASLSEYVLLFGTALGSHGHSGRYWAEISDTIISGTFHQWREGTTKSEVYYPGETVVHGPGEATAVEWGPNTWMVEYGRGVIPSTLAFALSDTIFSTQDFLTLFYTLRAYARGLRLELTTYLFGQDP
T2 sequence (P61169 whole entry): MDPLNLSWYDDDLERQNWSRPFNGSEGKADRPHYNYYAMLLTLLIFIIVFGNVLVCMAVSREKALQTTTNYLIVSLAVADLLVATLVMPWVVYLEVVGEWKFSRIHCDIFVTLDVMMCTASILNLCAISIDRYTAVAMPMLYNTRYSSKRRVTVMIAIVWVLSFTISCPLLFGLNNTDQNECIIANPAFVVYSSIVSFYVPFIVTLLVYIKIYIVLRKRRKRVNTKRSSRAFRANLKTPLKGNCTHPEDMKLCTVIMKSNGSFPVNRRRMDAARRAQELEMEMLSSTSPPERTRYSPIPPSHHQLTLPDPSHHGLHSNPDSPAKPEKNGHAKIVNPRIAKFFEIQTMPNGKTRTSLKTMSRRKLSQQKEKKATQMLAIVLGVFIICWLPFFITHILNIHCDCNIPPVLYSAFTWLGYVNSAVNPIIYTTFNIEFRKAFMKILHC

Structure (SMILES): [17F]CCC1OC2(CCN(Cc3ccccc3)CC2)c2ccccc21 (stereo not shown) [[^18F]fluspidine]
- brain level relative to its maximum ([1]; at 60 minutes post injection): 81%
- reduction in brain uptake ([1]; biodistribution in mice, over 2 hours): 40%
- time of maximum uptake in the brain ([1]; post injection): 30 min

Structure (SMILES): Cl.O=c1sc2cc(CCCF)ccc2n1CCN1CCCCCC1 [CM304, 3-(2-(azepan-1-yl)ethyl)-6-(3-fluoropropyl)benzo[d]thiazol-2(3H)-one hydrochloride]
- Ki [2]: 0.0025 nM
- experimental pKa [3]: 10.4
- half-life [4]: 4.2 min
- attenuation of cocaine-induced convulsions [5]: significantly attenuated

Structure (SMILES): O=c1oc2ccccc2n1CCCCN1CCN(C2CCCCC2)CC1 [CM 121]
- preference (selectivity) for the σ-2 subtype ([6]; σ-2 over σ-1): six fold

Structure (SMILES): CC(C)=CCN1CC[C@]2(C)c3cc(O)ccc3C[C@H]1[C@H]2C [(+)-[^3H] pentazocine, reference compound]
- uptake in cells transfected with σ-1 receptor cDNA versus control CHO cells [7]: 3.6 fold

Structure (SMILES): Fc1ccc(-c2cn(CCCCN3CCN(C4CCCCC4)CC3)c3ccccc23)cc1 [CM 349]
- Ki ([6]; CM table, read-out: Ki (nM) […]2): 22.6 ± 1.13 nM
- Ki [8]: 90.9 ± 12.3 nM

Structure (SMILES): Cn1c(=O)n(CCCCN2CCN(C3CCCCC3)CC2)c2ccccc21 [CM 396]
- Ki ([6]; CM table, read-out: Ki (nM) […]2): 2.57 ± 0.47 nM

Structure (SMILES): S=c1sc2ccccc2n1CCCCN1CCN(C2CCCCC2)CC1 [CM156]
- expression of cocaine-induced sensitization (behavioral sensitization) [9]: significant attenuation
- attenuation of cocaine-induced locomotor activity [10]: significant attenuation
- neurotoxic effects resulting from methamphetamine exposures (dopamine depletions) [11]: attenuated
- Ki [12]: 1175 ± 10 nM
- Ki [13]: > 10000 nM
- Ki [14]: 1330 ± 159 nM
- Ki [15]: 1400 ± 152 nM
- Ki [16]: 1041 ± 9 nM
- locomotor stimulant effects of methamphetamine [17]: attenuated
- Ki [18]: > 10000 nM
- attenuation of cocaine-induced convulsions [5]: significant attenuation

Structure (SMILES): O=c1sc2ccccc2n1CCCCN1CCN(C2CCCCC2)CC1 [CM 145]
- Ki ([6]; CM table, read-out: Ki (nM) […]2): 0.39 ± 0.06 nM

Structure (SMILES): CC(CCCn1c(=O)sc2cc(F)ccc21)N1CCN(C2CCCCC2)CC1 (stereo not shown) [AZ_66]
- loss of substrate in the absence of cofactor ([19]; control incubation without NADPH): no loss of substrate
- metabolised at 1 h, 1 µM ([19]; rat, microsomes, pH 7.4, by 60 min, read-out: added substrate metabolized by microsomes): ~25%

Structure (SMILES): Fc1ccc(-c2cn(CCCCN3CCN(c4ccc(F)cc4)CC3)c3ccccc23)cc1 [CM 350]
- Ki [8]: 1200 ± 73.9 nM

Structure (SMILES): O=c1sc2cc(CCC[18F])ccc2n1CCN1CCCCCC1 [[^18F]FTC-146, 6-(3-fluoropropyl) -3-(2-(azapan-1-yl)ethyl) benzo [d] thiazol-2 (3H) -one]
- uptake in cells transfected with σ-1 receptor cDNA versus control CHO cells [7]: 4 fold
- stability of formulated version in saline/ethanol (9:1) [20]: at least 5.5 hours
- reduction of [18F]FTC-146 binding in the brain ([21]; at 60 min, pre-treatment with CM304 1 mg/kg 10 minutes prior to radioligand): 83%
- tissue uptake ([21]; mouse, brain, iv, read-out: maximum uptake in brain): ~17 %ID/g

Structure (SMILES): CC(=O)c1ccc2c(c1)oc(=O)n2CCCCN1CCN(c2ccc(F)cc2)CC1 [SN-79]
- expression of cocaine-induced sensitization (behavioral sensitization) [9]: attenuates the expression of cocaine-induced sensitization
- attenuation of cocaine-induced locomotor activity [10]: significant attenuation
- development of cocaine-induced sensitization [22]: attenuates the development of cocaine-induced sensitization
- Ki ([6]; SN table, read-out: Ki (nM) σ2): 6.06 nM
- attenuation of cocaine-induced convulsions [5]: significant attenuation

Structure (SMILES): c1ccc2c(c1)ccn2CCCCN1CCN(C2CCCCC2)CC1 [CM 341]
- Ki ([6]; CM table, read-out: Ki (nM) […]2): 1.9 ± 0.16 nM

— patent EP3102204B1 (The University Of Mississippi, priority 2014, dated 2015)
